Tests used:
[1] = DRUGMATRIX: ATPase, Na+/K+ enzyme inhibition (substrate: ATP); type: tissue-based, Sus scrofa, Heart; details: Not Active = under 50% inhibition at 10 µM
[2] = DRUGMATRIX: Atrial Natriuretic Factor (ANF) radioligand binding (ligand: [125I] ANF (rat)); type: cell membranes, Cavia porcellus, Dunkin-Hartley, Adrenal gland, Membrane; details: Not Active = under 50% inhibition at 10 µM
[3] = DRUGMATRIX: Calcium Channel Type L, Dihydropyridine radioligand binding (ligand: [3H] Nitrendipine); type: cell membranes, Rattus norvegicus, Wistar, Cerebral cortex, Membrane; details: Not Active = under 50% inhibition at 10 µM
[4] = biological target: T1, Vasoactive intestinal polypeptide receptor 1 (Homo sapiens, UniProt P32241); type: cell membranes, Membrane; details: ht-29; note: in other assays of this panel Not Active means under 50% inhibition at 10 µM
T1 sequence (P32241 whole entry): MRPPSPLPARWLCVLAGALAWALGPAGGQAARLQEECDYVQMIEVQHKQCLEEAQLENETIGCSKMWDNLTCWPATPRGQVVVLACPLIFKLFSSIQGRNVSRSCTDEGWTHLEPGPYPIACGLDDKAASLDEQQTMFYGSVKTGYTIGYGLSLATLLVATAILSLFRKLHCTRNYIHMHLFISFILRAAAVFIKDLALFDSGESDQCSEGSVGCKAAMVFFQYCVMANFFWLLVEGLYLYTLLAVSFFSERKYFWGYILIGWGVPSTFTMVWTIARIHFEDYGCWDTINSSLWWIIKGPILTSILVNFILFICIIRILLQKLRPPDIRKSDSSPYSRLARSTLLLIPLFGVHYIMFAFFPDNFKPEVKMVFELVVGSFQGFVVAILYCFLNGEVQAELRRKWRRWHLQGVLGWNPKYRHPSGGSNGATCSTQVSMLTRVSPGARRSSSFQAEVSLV

Cannabinoid receptor 1 = Cannabinoid receptor 1 (Homo sapiens, UniProt P21554); type: cell membranes, Chem-1, Membrane; details: chem-1; note: in other assays of this panel Not Active means under 50% inhibition at 10 µM
[5] = DRUGMATRIX: Phosphodiesterase PDE3 enzyme inhibition (substrate: [3H]cAMP + cAMP); type: tissue-based, Homo sapiens; details: platelet; Not Active = under 50% inhibition at 10 µM
Acetylcholinesterase = Acetylcholinesterase (Homo sapiens, UniProt P22303); experiment: DRUGMATRIX: Acetylcholinesterase enzyme inhibition (substrate: acetylthiocholine); type: cell-based, HEK293; details: hek293; Not Active = under 50% inhibition at 10 µM
Cytochrome P450 2E1 = Cytochrome P450 2E1 (Homo sapiens, UniProt P05181); details: bti-tn-5b1-4; note: in other assays of this panel Not Active means under 50% inhibition at 10 µM
Chain of Cytochrome P450 2E1 (P05181 whole entry): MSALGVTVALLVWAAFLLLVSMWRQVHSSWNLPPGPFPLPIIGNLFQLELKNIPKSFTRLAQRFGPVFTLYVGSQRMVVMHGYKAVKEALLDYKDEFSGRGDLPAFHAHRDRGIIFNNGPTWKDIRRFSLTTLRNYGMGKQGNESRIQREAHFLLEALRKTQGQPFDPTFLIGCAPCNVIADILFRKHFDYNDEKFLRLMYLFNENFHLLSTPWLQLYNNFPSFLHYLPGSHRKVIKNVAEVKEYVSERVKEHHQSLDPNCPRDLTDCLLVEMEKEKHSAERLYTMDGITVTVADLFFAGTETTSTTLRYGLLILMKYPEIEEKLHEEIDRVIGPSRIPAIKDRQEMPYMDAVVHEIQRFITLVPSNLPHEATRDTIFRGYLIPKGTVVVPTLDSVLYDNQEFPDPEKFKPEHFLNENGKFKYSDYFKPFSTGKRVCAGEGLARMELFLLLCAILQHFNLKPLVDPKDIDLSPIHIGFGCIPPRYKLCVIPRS

Chain of Acetylcholinesterase (P22303 whole entry): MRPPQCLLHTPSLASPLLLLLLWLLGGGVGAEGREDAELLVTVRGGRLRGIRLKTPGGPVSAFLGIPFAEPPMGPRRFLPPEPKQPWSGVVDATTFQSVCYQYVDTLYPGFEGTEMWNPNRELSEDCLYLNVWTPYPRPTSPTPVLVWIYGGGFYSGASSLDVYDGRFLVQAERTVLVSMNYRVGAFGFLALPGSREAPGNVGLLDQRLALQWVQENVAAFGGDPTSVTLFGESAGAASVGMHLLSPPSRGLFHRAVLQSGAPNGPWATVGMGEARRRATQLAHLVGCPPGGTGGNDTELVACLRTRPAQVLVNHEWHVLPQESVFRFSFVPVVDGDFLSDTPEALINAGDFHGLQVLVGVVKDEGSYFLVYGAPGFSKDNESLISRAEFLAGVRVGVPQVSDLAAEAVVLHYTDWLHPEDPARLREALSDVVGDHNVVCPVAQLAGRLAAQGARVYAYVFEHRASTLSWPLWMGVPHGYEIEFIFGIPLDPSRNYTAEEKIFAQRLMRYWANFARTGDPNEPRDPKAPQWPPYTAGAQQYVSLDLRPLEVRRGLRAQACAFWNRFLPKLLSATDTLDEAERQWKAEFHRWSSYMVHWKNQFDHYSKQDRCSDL
Chain of Cannabinoid receptor 1 (P21554 whole entry): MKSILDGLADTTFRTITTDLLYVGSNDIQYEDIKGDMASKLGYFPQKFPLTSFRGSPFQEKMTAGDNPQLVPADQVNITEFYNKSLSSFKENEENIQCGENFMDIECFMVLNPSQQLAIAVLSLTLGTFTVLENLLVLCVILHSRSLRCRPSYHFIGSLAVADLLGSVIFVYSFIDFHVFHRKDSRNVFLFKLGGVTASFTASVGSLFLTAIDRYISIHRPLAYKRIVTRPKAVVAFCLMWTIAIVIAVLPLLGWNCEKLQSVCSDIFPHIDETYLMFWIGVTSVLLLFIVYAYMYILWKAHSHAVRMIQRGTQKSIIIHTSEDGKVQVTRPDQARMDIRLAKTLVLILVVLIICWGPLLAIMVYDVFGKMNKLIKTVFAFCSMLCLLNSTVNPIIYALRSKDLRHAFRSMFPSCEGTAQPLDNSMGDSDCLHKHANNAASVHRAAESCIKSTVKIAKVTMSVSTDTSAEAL

## C[C@]12CC[C@H]3[C@@H](CCC4=CC(=O)CC[C@@H]43)[C@@H]1CC[C@@H]2O [NANDROLONE]
[1]
  IC50: Not Active
  Ki: Not Active
[2]
  IC50: Not Active
  Ki: Not Active
[3]
  IC50: Not Active
  Ki: Not Active
[4]
  IC50: Not Active
Cannabinoid receptor 1
  IC50: Not Active
[5]
  IC50: Not Active
  Ki: Not Active
Acetylcholinesterase
  IC50: Not Active
Cytochrome P450 2E1
  IC50: Not Active
  Ki: Not Active

## NC(=O)c1cccnc1 [NIACINAMIDE]
[1]
  IC50: Not Active
  Ki: Not Active
[2]
  IC50: Not Active
  Ki: Not Active
[3]
  IC50: Not Active
  Ki: Not Active
[4]
  IC50: Not Active
Cannabinoid receptor 1
  IC50: Not Active
[5]
  IC50: Not Active
  Ki: Not Active
Acetylcholinesterase
  IC50: Not Active
Cytochrome P450 2E1
  IC50: Not Active
  Ki: Not Active

## CS(=O)(=O)Nc1ccc([N+](=O)[O-])cc1Oc1ccccc1 [NIMESULIDE]
[1]
  IC50: Not Active
  Ki: Not Active
[2]
  IC50: Not Active
  Ki: Not Active
[3]
  IC50: Not Active
  Ki: Not Active
[4]
  IC50: Not Active
Cannabinoid receptor 1
  IC50: Not Active
[5]
  IC50: Not Active
  Ki: Not Active
Acetylcholinesterase
  IC50: Not Active
Cytochrome P450 2E1
  IC50: Not Active
  Ki: Not Active

## CN1C(=O)CN=C(c2ccccc2)c2cc([N+](=O)[O-])ccc21 [NIMETAZEPAM]
[1]
  IC50: Not Active
  Ki: Not Active
[2]
  IC50: Not Active
  Ki: Not Active
[3]
  IC50: Not Active
  Ki: Not Active
[4]
  IC50: Not Active
Cannabinoid receptor 1
  IC50: Not Active
[5]
  IC50: Not Active
  Ki: Not Active
Acetylcholinesterase
  IC50: Not Active
Cytochrome P450 2E1
  IC50: Not Active
  Ki: Not Active

## COc1ccc2c(c1OC)C(=O)O[C@@H]2[C@H]1c2c(cc3c(c2OC)OCO3)CCN1C [NOSCAPINE]
[1]
  IC50: Not Active
  Ki: Not Active
[2]
  IC50: Not Active
  Ki: Not Active
[3]
  IC50: Not Active
  Ki: Not Active
[4]
  IC50: Not Active
Cannabinoid receptor 1
  IC50: Not Active
[5]
  IC50: Not Active
  Ki: Not Active
Acetylcholinesterase
  IC50: Not Active
Cytochrome P450 2E1
  IC50: Not Active
  Ki: Not Active

## C[C@@H]1O[C@@H](O[C@H]2C[C@@H](O)[C@]3(CO)[C@H]4[C@H](O)C[C@]5(C)[C@@H](C6=CC(=O)OC6)CC[C@]5(O)[C@@H]4CC[C@]3(O)C2)[C@H](O)[C@H](O)[C@H]1O [OUABAIN]
[1]; read-out: IC50
  IC50: 678 nM
[2]
  IC50: Not Active
  Ki: Not Active
[3]
  IC50: Not Active
  Ki: Not Active
[4]
  IC50: Not Active
Cannabinoid receptor 1
  IC50: Not Active
[5]
  IC50: Not Active
  Ki: Not Active
Acetylcholinesterase
  IC50: Not Active
Cytochrome P450 2E1
  IC50: Not Active
  Ki: Not Active

## NC(=O)N1c2ccccc2CC(=O)c2ccccc21 [OXCARBAZEPINE]
[1]
  IC50: Not Active
  Ki: Not Active
[2]
  IC50: Not Active
  Ki: Not Active
[3]
  IC50: Not Active
  Ki: Not Active
[4]
  IC50: Not Active
Cannabinoid receptor 1
  IC50: Not Active
[5]
  IC50: Not Active
  Ki: Not Active
Acetylcholinesterase
  IC50: Not Active
Cytochrome P450 2E1
  IC50: Not Active
  Ki: Not Active

## COc1ccnc(C[S+]([O-])c2nc3ccc(OC(F)F)cc3[nH]2)c1OC (stereo unspecified) [PANTOPRAZOLE]
[1]
  IC50: Not Active
  Ki: Not Active
[2]
  IC50: Not Active
  Ki: Not Active
[3]
  IC50: Not Active
  Ki: Not Active
[4]
  IC50: Not Active
Cannabinoid receptor 1
  IC50: Not Active
[5]
  IC50: Not Active
  Ki: Not Active
Acetylcholinesterase
  IC50: Not Active
Cytochrome P450 2E1
  IC50: Not Active
  Ki: Not Active

## N=C(N)c1ccc(OCCCCCOc2ccc(C(=N)N)cc2)cc1 [PENTAMIDINE]
[1]
  IC50: Not Active
  Ki: Not Active
[2]
  IC50: Not Active
  Ki: Not Active
[3]
  IC50: Not Active
  Ki: Not Active
[4]
  IC50: Not Active
Cannabinoid receptor 1
  IC50: Not Active
[5]
  IC50: Not Active
  Ki: Not Active
Acetylcholinesterase
  IC50: Not Active
Cytochrome P450 2E1
  IC50: Not Active
  Ki: Not Active

Reference: ChEMBL document CHEMBL1909046, “DrugMatrix in vitro pharmacology data”
